Measured values reported in PMC7496920, “Structure‐Activity Relationship of Phenylpyrazolones against Trypanosoma cruzi” (Chemmedchem, 2020).

What was measured:
MRC‐5 cells [1] = assay: MRC‐5 cytotoxicity in vitro assay (resazurin); assay type: cell-based, human; settings: for IC50: Homo sapiens, MRC5, 72 h, MRC‐5‐SV2 cytotoxicity, 72 h, SD ±0.2, n>=2, read-out: pIC50 MRC‐5 (converted)
Description: MRC‐5 cytotoxicity in vitro assay: MRC‐5‐SV2 cells, originally from a human diploid lung cell line, were cultivated in MEM, supplemented with L‐glutamine (20 mM), 16.5 mM sodium hydrogen carbonate and 5 % FCSi. For the assay, 10^4 cells/well were seeded onto the test plates containing the pre‐diluted sample and incubated at 37 °C and 5 % CO2 for 72 h. Cell viability was assessed fluorometrically 4 h after addition of resazurin (excitation 550 nm, emission 590 nm). The results are expressed as percentage reduction in cell viability compared to untreated controls. Tamoxifen was used as a reference compound.

[2] = tested on: intracellular amastigotes of T. cruzi (Tulahuen strain); assay: Trypanosoma cruzi in vitro susceptibility assay on intracellular amastigotes (β‐galactosidase strain); assay type: cell-based; settings: for IC50: Trypanosoma cruzi, TULAHUEN, MRC-5 SV2, 168 h, intracellular amastigotes, Tulahuen CL2 β‐galactosidase strain in MRC‐5SV2 cells, 7 d, SD ±0.2, n>=2, read-out: pIC50 T. cruzi (converted); for SI (selectivity index): cytotoxicity (IC50, MRC‐5) divided by T. cruzi activity (IC50)
Description: Trypanosoma cruzi in vitro assay: Bloodstream trypomastigotes (BT) of the Y strain of T. cruzi were obtained by cardiac puncture of infected Swiss Webster mice on the parasitaemia peak.12 For the standard in vitro susceptibility assay on intracellular amastigotes, T. cruzi Tulahuen CL2, β‐galactosidase strain (DTU VI, nifurtimox‐sensitive) was used. The strain is maintained on MRC‐5SV2 (human lung fibroblast) cells in MEM medium, supplemented with […] L‐glutamine, 16.5 mM NaHCO3, and 5 % heat inactivated fetal calf serum (FCSi). […] The color reaction was read at 540 nm after 4 h, and absorbance values were expressed as a percentage of the blank controls. All cultures and assays are conducted at 37 °C under 5 % CO2.13 Benznidazole was used as a reference compound.

[3] = tested on: intracellular amastigotes of T. cruzi (Tulahuen strain); set-up: method as in earlier work; settings: earlier hit optimization; cited from earlier work
MRC‐5 cells [4] = tested on: MRC‐5 cells; set-up: method as in earlier work; settings: earlier hit optimization; cited from earlier work

SMILES	IC50 (MRC‐5 cells [1]) [µM]	IC50 [2] [µM]	SI (selectivity index) [2]	pIC50 T. cruzi [3]	pIC50 MRC‐5 (MRC‐5 cells [4])	MRC‐5 toxicity at 62 μM (MRC‐5 cells [1]; 62 μM, limit concentration screened)
COc1ccc(C2=NN(C(C)C)C(=O)C23CCCC3)cc1-c1cccnc1 [compound 89]	31.6	6.31	–	–	–	–
COc1ccc(C2=NN(C(C)C)C(=O)CC2)cc1-c1cccnc1 [compound 104]	25.1	10	3	–	–	–
COc1c(C)cc(C2=NN(C(C)C)C(=O)C2(C)C)cc1-c1cccnc1 [compound 67]	> 63.1	12.6	>5	–	–	–
COc1ccc(-c2nnc(-c3ccccc3)o2)cc1-c1cccnc1 [compound 135]	> 63.1	~1.58	>40	–	–	–
COc1ccc(-c2nnc(C3CCCC3)o2)cc1-c1cccnc1 [compound 133]	> 63.1	10	>6	–	–	–
COc1cc(F)c(C2=NN(C(C)C)C(=O)C2(C)C)cc1-c1cccnc1 [compound 66]	> 63.1	5.01	>13	–	–	–
COc1ccc(-c2nc(C(C)(C)C)co2)cc1-c1cccnc1 [compound 120, 4‐(tert‐Butyl)‐2‐(4‐methoxy‐3‐(pyridin‐3‐yl)phenyl)oxazole]	< 6.31	2	3	–	–	–
COc1ccc(-c2cc3n(n2)CCO3)cc1-c1cccnc1 [compound 95]	50.1	31.6	2	–	–	–
COc1ccc(-c2nc(-c3cccc(F)c3)co2)cc1-c1cccnc1 [compound 122]	–	1.26	–	–	–	–
COc1ccc(-c2nc(C3CC3)cs2)cc1-c1cccnc1 [compound 141]	7.94	2.51	3	–	–	–
COc1ccc(-c2nnc(-c3cccc(F)c3)o2)cc1-c1cccnc1 [compound 136]	> 63.1	~1.58	>32	–	–	–
COc1ccc(C2=NN(C(C)C)C(=O)C23CCOCC3)cc1-c1cccnc1 [compound 92]	31.6	31.6	1	–	–	–
COc1ccc(C2=NN(C(C)C)C(=O)C23CCN(C)CC3)cc1-c1cccnc1 [compound 91]	50.1	31.6	2	–	–	–
CC(C)N1N=C(c2cc3c(c(-c4cccnc4)c2)OCC3)C(C)(C)C1=O [compound 59, 1‐Isopropyl‐4,4‐dimethyl‐3‐(7‐(pyridin‐3‐yl)‐2,3‐dihydrobenzofuran‐5‐yl)‐1H‐pyrazol‐5(4H)‐one]	25.1	1.58	16	–	–	–
COc1ccc(-c2nc(-c3ccccc3)c(C)o2)cc1-c1cccnc1 [compound 124]	< 6.31	2	3	–	–	–
COc1c(Br)cc(C2=NN(C(C)C)C(=O)C2(C)C)cc1-c1cccnc1 [compound 60]	25.1	7.94	3	–	–	–
COc1ccc(C2=NN(C(C)C)C(=O)C23CC=CC3)cc1-c1cccnc1 [compound 90]	39.8	7.94	–	–	–	–
COc1ccc(C2=NN(C(C)C)C(=O)C2(C)C)cc1-c1cccnc1 [compound 3, 2‐isopropyl‐5‐(4‐methoxy‐3‐(pyridin‐3‐yl)phenyl)‐4,4‐dimethyl‐2,4‐dihydro‐3H‐pyrazol‐3‐one]	39.8	0.398	100	6.4	4.4	–

SMILES	IC50 (MRC‐5 cells [1]) [µM]	IC50 [2] [µM]	SI (selectivity index) [2]	pIC50 T. cruzi [3]	pIC50 MRC‐5 (MRC‐5 cells [4])	MRC‐5 toxicity at 62 μM (MRC‐5 cells [1]; 62 μM, limit concentration screened)
COc1cc(C)c(C2=NN(C(C)C)C(=O)C2(C)C)cc1-c1cccnc1 [compound 68]	> 63.1	31.6	>2	–	–	–
COc1ccc(-c2nnc(CC3CCOCC3)o2)cc1-c1cccnc1 [compound 134]	> 63.1	25.1	>3	–	–	–
CC(C)N1N=C(c2cccc(-c3cccnc3)c2)C(C)(C)C1=O [compound 61]	63.1	3.16	20	–	–	–
COc1ccc(C2=NN(C(C)C)C(=S)C2(C)C)cc1-c1cccnc1 [compound 99]	15.8	0.501	32	–	–	–
CC(C)N1N=C(c2ccc(F)c(-c3cccnc3)c2)C(C)(C)C1=O [compound 62]	> 63.1	~3.16	>10	–	–	–
CC(C)N1N=C(c2ccc(C#N)c(-c3cccnc3)c2)C(C)(C)C1=O [compound 74]	> 63.1	50.1	>1	–	–	–
COc1ccc(-c2nnc(C(C)C)o2)cc1-c1cccnc1 [compound 132, 2‐Isopropyl‐5‐(4‐methoxy‐3‐(pyridin‐3‐yl)phenyl)‐1,3,4‐oxadiazole]	> 63.1	20	>3	–	–	–
COc1ccc(-c2nc(-c3ccccc3)cs2)cc1-c1cccnc1 [compound 142]	2.51	2	1	–	–	–
CC(C)N1N=C(c2ccc(Cl)c(-c3cccnc3)c2)C(C)(C)C1=O [compound 63]	15.8	~3.16	5	–	–	–
Cc1ccc(C2=NN(C(C)C)C(=O)C2(C)C)cc1-c1cccnc1 [compound 64]	> 63.1	~3.16	>25	–	–	–
COc1cc(C2=NN(C(C)C)C(=O)C2(C)C)cc(-c2cccnc2)c1 [compound 57]	31.6	7.94	4	–	–	–
COc1ccc(-c2nc(-c3ccccc3)co2)cc1-c1cccnc1 [compound 121]	< 6.31	1	3	–	–	–
COc1ccc(C2=NN(C(C)C)C(=O)C2(C)C)c(F)c1-c1cccnc1 [compound 65]	> 63.1	2.51	>25	–	–	–
COc1ccc(-c2nc(-c3ccc(F)cc3)co2)cc1-c1cccnc1 [compound 123]	> 63.1	0.631	>100	–	–	no MRC‐5 toxicity
COc1ccc(C2=Nn3c(C4CC4)nnc3C2(C)C)cc1-c1cccnc1 [compound 109]	> 63.1	15.8	>4	–	–	–
COc1ccc(Cc2nnc(N)s2)cc1-c1cccnc1 [compound 98]	> 63.1	> 63.1	–	–	–	–
COc1cc(C2=NN(C(C)C)C(=O)C2(C)C)cc(-c2cccnc2)c1OC [compound 58]	> 63.1	50.1	>1	–	–	–
